How the values were obtained:
hr EGFR = hr EGFR (Homo sapiens, UniProt P00533); assay: receptor profile (Table S4); type: biochemical
h AdT = target: T1, h AdT (Homo sapiens, UniProt Q99808); assay: receptor profile (Table S4); type: binding
T1 sequence (Q99808 2-456 limits assumed): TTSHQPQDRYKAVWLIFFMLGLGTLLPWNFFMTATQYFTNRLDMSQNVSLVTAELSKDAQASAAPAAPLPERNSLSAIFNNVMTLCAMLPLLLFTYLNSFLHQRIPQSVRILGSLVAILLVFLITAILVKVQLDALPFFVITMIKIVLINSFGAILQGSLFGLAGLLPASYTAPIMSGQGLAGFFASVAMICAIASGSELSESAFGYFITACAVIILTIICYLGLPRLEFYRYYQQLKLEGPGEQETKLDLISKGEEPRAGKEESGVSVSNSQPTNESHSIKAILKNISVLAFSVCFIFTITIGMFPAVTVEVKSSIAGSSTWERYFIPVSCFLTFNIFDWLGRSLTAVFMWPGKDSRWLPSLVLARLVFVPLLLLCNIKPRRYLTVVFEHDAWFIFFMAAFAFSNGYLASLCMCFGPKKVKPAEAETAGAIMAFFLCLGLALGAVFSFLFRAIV

[1] = metabolite profile in monkey hepatocytes; type: in vitro ADME; conditions: 10 μM of 1 for 4 h, UV 250 nm, normalized to largest peak
hr ERa ag = hr ERa ag (Homo sapiens, UniProt P03372); assay: receptor profile (Table S4); type: biochemical
hr 5-HT2C = target: T2, hr 5-HT2C (Homo sapiens, UniProt P28335); assay: receptor profile (Table S4); type: binding
T2 sequence (P28335 33-458): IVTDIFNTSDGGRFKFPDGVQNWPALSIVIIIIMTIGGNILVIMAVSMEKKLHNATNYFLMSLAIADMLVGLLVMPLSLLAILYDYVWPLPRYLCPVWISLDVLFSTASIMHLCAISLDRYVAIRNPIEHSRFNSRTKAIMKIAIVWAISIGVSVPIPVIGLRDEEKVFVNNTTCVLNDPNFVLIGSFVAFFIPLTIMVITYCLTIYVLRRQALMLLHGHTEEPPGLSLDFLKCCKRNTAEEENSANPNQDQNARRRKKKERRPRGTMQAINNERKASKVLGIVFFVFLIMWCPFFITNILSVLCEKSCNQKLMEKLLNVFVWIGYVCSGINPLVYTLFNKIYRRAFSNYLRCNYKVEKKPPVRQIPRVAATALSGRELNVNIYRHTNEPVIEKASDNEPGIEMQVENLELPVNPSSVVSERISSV

in vivo = conditions: Balb/c, mouse, plasma
Description: In Vivo PK Studies in Mice.
The solution was filtered using a 0.45 m syringe filter before dosing. Two male Balb/c mice were administered 1 intravenously via the lateral tail
vein at 5 mg/kg with a dose volume of 2.0 mL/kg. 1 was also formulated in a suspension of 0.5%
methylcellulose with 0.5% Tween 80 (0.5% MC/0.5% Tw80) in water at 2.5 mg/mL. A group of mice
(n=3) were administered 1 orally via gavage at 20 mg/kg with a dose volume of 8.0 mL/kg.
The mouse blood samples were centrifuged to separate plasma and the plasma samples were frozen at -
In Vivo PK Studies in Rats.
Two male Wistar rats were administered
1 intravenously via the lateral tail vein at 3 mg/kg with a dose volume of 1.0 mL/kg. 1 was also formulated
in a suspension of 0.5% methylcellulose with 0.5% Tween 80 (0.5% MC/0.5% Tw80) in water at 2.0
mg/mL. The second group of rats (n=3) were administered 1 orally via gavage at 10 mg/kg in suspension
with a dose volume of 5.0 mL/kg. Six blood samples of 100 μL each were collected serially from each
animal via the saphenous vein up to 24 hours after dosing. The rat blood samples were centrifuged to
separate plasma and the plasma samples were frozen at -20°C until analysis.
In Vivo PK Studies in Dogs.
The solution was filtered using a 0.45 m syringe filter before dosing. Three male Beagle dogs were administered 1 intravenously via saphenous
vein at 0.3 mg/kg with a dose volume of 0.1 mL/kg. 1 was also formulated in a suspension of 0.5%
methylcellulose with 0.5% Tween 80 (0.5%MC/0.5% Tween 80) in water at 1.0 mg/mL. The second
group of male dogs (n=2) were administered 1- orally via gavage at 1.0 mg/kg with a dose volume of 1.0
mL/kg. Seven blood samples of 250 µL each were collected serially from each animal via the jugular vein
The dog blood samples were centrifuged to separate plasma and the plasma
samples were frozen at -20 °C until analysis.

[2] = pharmacokinetics, summary across preclinical species; type: in vivo, rat, dog, cynomolgus monkey
hr GR ag = target: T3, hr GR ag (Homo sapiens, UniProt P04150); assay: receptor profile (Table S4); type: biochemical
T3 sequence (P04150 1-777): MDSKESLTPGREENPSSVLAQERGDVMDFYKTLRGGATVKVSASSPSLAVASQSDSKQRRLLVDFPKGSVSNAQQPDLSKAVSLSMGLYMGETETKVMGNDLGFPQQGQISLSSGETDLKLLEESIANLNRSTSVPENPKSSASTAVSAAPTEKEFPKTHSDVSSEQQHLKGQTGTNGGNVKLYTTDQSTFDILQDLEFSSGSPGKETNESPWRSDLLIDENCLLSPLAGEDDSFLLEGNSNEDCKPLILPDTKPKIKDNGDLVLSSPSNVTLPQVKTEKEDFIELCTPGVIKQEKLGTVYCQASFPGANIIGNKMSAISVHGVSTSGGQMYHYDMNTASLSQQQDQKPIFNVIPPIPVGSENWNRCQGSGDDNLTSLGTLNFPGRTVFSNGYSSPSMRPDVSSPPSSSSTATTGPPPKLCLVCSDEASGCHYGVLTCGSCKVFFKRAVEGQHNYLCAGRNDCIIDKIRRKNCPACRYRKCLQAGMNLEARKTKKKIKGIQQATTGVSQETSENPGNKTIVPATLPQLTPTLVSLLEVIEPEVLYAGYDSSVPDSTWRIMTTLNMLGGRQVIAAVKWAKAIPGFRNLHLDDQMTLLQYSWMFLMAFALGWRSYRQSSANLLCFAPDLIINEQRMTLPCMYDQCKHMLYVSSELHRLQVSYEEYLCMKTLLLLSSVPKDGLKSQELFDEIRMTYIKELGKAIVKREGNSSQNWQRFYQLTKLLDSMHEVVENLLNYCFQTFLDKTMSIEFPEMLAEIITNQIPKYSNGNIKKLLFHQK

hr MAOA = target: T4, hr MAOA (Homo sapiens, UniProt P21397); assay: receptor profile (Table S4); type: biochemical
T4 sequence (P21397 1-527): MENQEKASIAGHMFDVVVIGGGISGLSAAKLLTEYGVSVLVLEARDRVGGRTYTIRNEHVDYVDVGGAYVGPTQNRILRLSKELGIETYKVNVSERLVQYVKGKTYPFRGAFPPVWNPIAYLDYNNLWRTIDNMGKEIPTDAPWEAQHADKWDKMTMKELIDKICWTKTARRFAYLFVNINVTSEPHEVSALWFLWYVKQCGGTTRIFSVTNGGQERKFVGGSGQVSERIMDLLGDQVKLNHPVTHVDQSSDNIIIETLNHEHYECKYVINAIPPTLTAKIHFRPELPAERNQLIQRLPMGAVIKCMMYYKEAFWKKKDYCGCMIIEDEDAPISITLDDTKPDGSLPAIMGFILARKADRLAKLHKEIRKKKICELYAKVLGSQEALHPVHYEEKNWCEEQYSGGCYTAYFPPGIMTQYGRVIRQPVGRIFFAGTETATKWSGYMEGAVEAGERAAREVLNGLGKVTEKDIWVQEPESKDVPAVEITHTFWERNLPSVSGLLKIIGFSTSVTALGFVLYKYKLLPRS

Sequence of hr ERa ag (P03372 whole entry): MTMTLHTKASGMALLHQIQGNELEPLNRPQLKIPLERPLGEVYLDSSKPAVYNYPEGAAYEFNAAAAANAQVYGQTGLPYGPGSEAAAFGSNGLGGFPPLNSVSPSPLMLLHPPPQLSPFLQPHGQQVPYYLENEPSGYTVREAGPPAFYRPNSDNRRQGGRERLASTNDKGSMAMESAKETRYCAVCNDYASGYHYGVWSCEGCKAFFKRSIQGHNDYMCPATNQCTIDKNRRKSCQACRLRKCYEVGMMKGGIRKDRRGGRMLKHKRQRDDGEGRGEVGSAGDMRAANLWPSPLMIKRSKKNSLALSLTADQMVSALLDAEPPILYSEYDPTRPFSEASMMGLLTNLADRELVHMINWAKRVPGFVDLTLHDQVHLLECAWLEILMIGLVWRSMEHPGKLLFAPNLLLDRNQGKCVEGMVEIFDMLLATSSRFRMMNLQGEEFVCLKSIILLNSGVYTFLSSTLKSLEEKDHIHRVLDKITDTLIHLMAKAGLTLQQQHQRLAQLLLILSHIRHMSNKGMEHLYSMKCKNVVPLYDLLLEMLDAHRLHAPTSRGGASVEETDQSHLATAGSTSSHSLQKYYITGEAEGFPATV
Sequence of hr EGFR (P00533 25-1210): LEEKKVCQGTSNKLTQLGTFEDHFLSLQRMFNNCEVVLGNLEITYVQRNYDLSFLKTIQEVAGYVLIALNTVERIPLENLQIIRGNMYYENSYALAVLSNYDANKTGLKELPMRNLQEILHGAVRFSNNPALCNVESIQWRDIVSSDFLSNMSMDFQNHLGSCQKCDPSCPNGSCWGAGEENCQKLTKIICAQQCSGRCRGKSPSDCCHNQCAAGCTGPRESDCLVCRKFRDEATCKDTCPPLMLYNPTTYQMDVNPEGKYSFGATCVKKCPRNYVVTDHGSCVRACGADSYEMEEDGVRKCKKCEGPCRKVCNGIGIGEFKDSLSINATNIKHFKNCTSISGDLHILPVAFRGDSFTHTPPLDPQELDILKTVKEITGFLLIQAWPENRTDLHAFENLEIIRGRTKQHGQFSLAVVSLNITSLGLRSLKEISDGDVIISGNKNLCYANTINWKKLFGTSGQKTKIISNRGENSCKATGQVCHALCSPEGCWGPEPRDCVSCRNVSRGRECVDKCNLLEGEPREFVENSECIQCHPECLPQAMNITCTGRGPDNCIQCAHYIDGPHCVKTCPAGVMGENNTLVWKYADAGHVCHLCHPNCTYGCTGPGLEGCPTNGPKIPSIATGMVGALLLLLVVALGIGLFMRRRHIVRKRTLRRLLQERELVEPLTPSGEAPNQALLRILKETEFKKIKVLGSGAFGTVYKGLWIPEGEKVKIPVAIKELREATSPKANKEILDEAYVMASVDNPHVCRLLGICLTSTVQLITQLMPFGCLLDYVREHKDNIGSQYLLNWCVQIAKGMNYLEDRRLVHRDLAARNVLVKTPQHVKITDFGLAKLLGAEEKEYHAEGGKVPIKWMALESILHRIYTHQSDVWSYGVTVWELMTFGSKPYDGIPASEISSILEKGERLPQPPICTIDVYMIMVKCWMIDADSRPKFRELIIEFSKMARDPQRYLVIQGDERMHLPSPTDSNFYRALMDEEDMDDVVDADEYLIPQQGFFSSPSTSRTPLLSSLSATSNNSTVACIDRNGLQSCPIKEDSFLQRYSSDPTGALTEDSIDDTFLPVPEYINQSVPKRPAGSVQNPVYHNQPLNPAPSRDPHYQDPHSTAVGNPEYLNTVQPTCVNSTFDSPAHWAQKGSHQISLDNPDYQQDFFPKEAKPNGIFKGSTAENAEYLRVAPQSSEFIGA

Cc1nc(C)c(C(=O)Nc2ccc(F)c(-c3nc4ncc(-c5ncccc5C)cn4n3)c2)o1 [compound 1, N-(4-Fluoro-3-(6-(3-methylpyridin-2-yl)-[1,2,4]triazolo[1,5-a]pyrimidin-2-yl)phenyl)-2,4-dimethyloxazole-5-carboxamide]
EC50/IC50 (hr EGFR; hr EGFR): > 30 µM | inhibition at 10 µM (hr EGFR; read-out: % inh/act @ 10 µM): 16% | inhibition at 30 µM (hr EGFR; read-out: % inh/act @ 30 µM): 17% | EC50/IC50 (h AdT; h AdT): > 30 µM | inhibition at 10 µM (h AdT; read-out: % inh/act @ 10 µM): 28% | inhibition at 30 µM (h AdT; read-out: % inh/act @ 30 µM): 42% | abundance monkey [1]: +++ (+++ > 75%) | EC50/IC50 (hr ERa ag; hr ERa ag): > 30 µM | inhibition at 10 µM (hr ERa ag; read-out: % inh/act @ 10 µM): 7% | inhibition at 30 µM (hr ERa ag; read-out: % inh/act @ 30 µM): 15% | EC50/IC50 (hr 5-HT2C; hr 5-HT2C): > 30 µM | inhibition at 10 µM (hr 5-HT2C; read-out: % inh/act @ 10 µM): 9% | inhibition at 30 µM (hr 5-HT2C; read-out: % inh/act @ 30 µM): 8% | bioavailability (in vivo; po, 20 mg/kg): 46% | MRT (in vivo; male, iv, 5 mg/kg): 4.6 h | Vd (in vivo; male, iv, 5 mg/kg): 0.63 L/kg | clearance (in vivo; male, iv, 5 mg/kg): 2.3 mL/min/kg | half-life (in vivo; male, iv, 5 mg/kg): 3.3 h | bioavailability ([2]; Balb/c (mouse), Wistar (rat), beagle (dog), rat, dog, cynomolgus monkey, in vivo, po, across the tested species, conventional suspension formulations): 27 to 67% | half-life ([2]; male, Balb/c (mouse), Wistar (rat), beagle (dog), rat, dog, cynomolgus monkey, in vivo, across species following IV administration, read-out: plasma terminal half-life): 3 to 10 h | CL as % of hepatic blood flow ([2]; mouse, rat, and monkey, IV, fumarate salt): 2–17 % of hepatic blood flow | EC50/IC50 (hr GR ag; hr GR ag): > 30 µM | inhibition at 10 µM (hr GR ag; read-out: % inh/act @ 10 µM): -5% | inhibition at 30 µM (hr GR ag; read-out: % inh/act @ 30 µM): -4% | % inh/act @ 10 µM (h Nic(cns)): 20% | % inh/act @ 30 µM (h Nic(cns)): 24% | EC50/IC50 (hr MAOA; hr MAOA): > 30 µM | inhibition at 10 µM (hr MAOA; read-out: % inh/act @ 10 µM): 4% | inhibition at 30 µM (hr MAOA; read-out: % inh/act @ 30 µM): 12%

— PMC7549094 (Journal of Medicinal Chemistry, 2020)
